Results as given in patent US6835724B2, “Corticoid 17,21-dicarboxylic esters and corticosteroid 17-carboxylic ester 21-carbonic esters, processes for their preparation and pharmaceuticals containing these compounds” (Aventis Pharma Deutschland GmbH, priority 1993, dated 2004).

What was measured:
[1] = tested on: Carrageenan paw edema; experiment: Systemic antiinflammatory effect following subcutaneous administration: Carrageenan paw edema in rats; type: in vivo, rat; conditions: for Increase in volume: 6 hours after carrageenan, control 0.58 ± 0.16; for systemic activity: summary in words
Source text: 2 a) Examining for systemic antiinflammatory effect in the “antiinflammatory effect following subcutaneous administration: Carrageenan paw edema in rats” test. The carrageenan paw edema test in rats in accordance with the method described by Winter et al., Proc. Soc. exp. Biol. (New York) 111, 544 (1962) was chosen as the test for the acute systemic antiinflammatory effect. […] Controls were only given sesame oil. The paw volumes are given in ml, x±s.

[2] = tested on: gluconeogenesis; experiment: Systemic effect: gluconeogenesis in adrenalectomized rats; conditions: for Glycogen + glucose mg/100 g of liver: 6 hours, control 11.2 ± 1.7; for effect on new formation of glucose and glycogen: t test against control
Experimental: 2 b) Examining for systemic effect: gluconeogenesis in rats
A sensitive method for detecting systemic effects on carbohydrate metabolism is to examine the gluconeogenic effect of corticosteroids in the adrenalectomized rat.
Three days prior to the experiment, groups of in each case 6 rats are adrenalectomized under pentobarbital anesthesia and provided with 0.9% sodium chloride solution as drinking fluid. Two days later, i.e. 24 hours before initiating the experiment, the feed is removed in order to reduce the glycogen stores in the liver.
On the day of the experiment, the preparations under examination are administered subcutaneously, dissolved in sesame oil (2 ml/kg). Six hours later, the animals are decapitated, and in each case the liver is removed and 1 g thereof is taken up in 5 ml of 0.6 molar perchloric acid. After homogenization, the free glucose is measured in the supernatant from the centrifugation, while the centrifugation sediment (centrifugate; glycogen) is cleaved enzymically with amyloglucosidase, after which the glucose content is also measured in this fraction (Hexokinase method, Boehringer Mannheim).

[3] = tested on: rat croton oil ear edema; experiment: Local antiinflammatory effect in rat croton oil ear edema following epicutaneous application; type: in vivo; conditions: for Inhibition in % / x ± s (mg), weight difference of treated and untreated ear disks: 4 h; for x ± s (mg), weight difference of treated and untreated ear disks: TPA irritant, control 21.2 ± 5.1; for local antiinflammatory effect: summary in words
Experimental: 1. Local antiinflammatory effect in rat croton oil ear edema following epicutaneous application […] The left ear remained untreated. […] The corticoids under examination were dissolved in this solution in the given final concentrations. Controls only received the TPA/solvent mixture. The animals were sacrificed using CO2 4 h after the epicutaneous treatment. Disks measuring 8 mm in diameter were punched out of the right (treated) and the left (untreated) ears and weighed immediately.

Row | Structure (SMILES) | Increase in volume ([1]; 0.3 mg/kg s.c.) | Increase in volume ([1]; 3.0 mg/kg s.c.) | systemic activity [1] | Glycogen + glucose mg/100 g of liver ([2]; 0.3 mg/kg s.c.) | effect on new formation of glucose and glycogen ([2]; 0.3 mg/kg s.c.) | Glycogen + glucose mg/100 g of liver ([2]; 3.0 mg/kg s.c.) | Inhibition in % ([3]; 0.1 mg/ml epicutaneous) | x ± s (mg), weight difference of treated and untreated ear disks ([3]; 0.1 mg/ml epicutaneous) | Inhibition in % ([3]; 0.3 mg/ml epicutaneous) | x ± s (mg), weight difference of treated and untreated ear disks ([3]; 0.3 mg/ml epicutaneous) | Inhibition in % ([3]; 1.0 mg/ml epicutaneous) | x ± s (mg), weight difference of treated and untreated ear disks ([3]; 1.0 mg/ml epicutaneous) | local antiinflammatory effect [3]
1 | C[C@]12C=CC(=O)C=C1CC[C@@H]1[C@@H]2[C@@H](O)C[C@@]2(C)[C@H]1CC[C@]2(OC(=O)c1ccccc1)C(=O)COC(=O)Cc1ccccc1 [Compound I, prednisolone 17-benzoate 21-phenylacetic ester] | 0.46 ± 0.19 mL | 0.38 ± 0.15 mL | weak | 20.4 ± 11.7 n.s. mg/100 g of liver | still do not have any significant effect | 96.0 ± 26.2 mg/100 g of liver | 76% | 5.0 ± 3.1 mg | 85% | 3.1 ± 2.5 mg | 91% | 2.0 ± 1.4 mg | strong
2 | C[C@H]1C[C@H]2[C@@H]3CCC4=CC(=O)C=C[C@]4(C)[C@@]3(F)[C@@H](O)C[C@]2(C)[C@@]1(OC(=O)c1ccccc1)C(=O)COC(=O)Cc1ccccc1 [Compound II, betamethasone 17-benzoate 21-phenylacetic ester] | 0.56 ± 0.09 mL | 0.45 ± 0.14 mL | weak | 10.8 ± 1.3 n.s. mg/100 g of liver | still do not have any significant effect | 81.2 ± 61.7 mg/100 g of liver | 67% | 7.0 ± 3.3 mg | 77% | 4.9 ± 3.3 mg | 95% | 1.1 ± 0.9 mg | strong
3 | CCOC(=O)O[C@]1(C(=O)COC(=O)CC)CC[C@H]2[C@@H]3CCC4=CC(=O)C=C[C@]4(C)[C@H]3[C@@H](O)C[C@@]21C [Prednicarbate, prednisolone 17-ethyl carbonate 21-propionate, reference compound] | 0.36 ± 0.13 mL | 0.09 ± 0.08 mL |  |  |  |  | 75% | 5.2 ± 3.3 mg | 88% | 2.6 ± 2.4 mg |  |  | 
